We go through three compounds from US5318985A, “Potentiation of NMDA antagonists” (Merrell Dow Pharmaceuticals Inc., priority 1991, dated 1994).

Counter-ions that a name gives are not always drawn. Like-named read-outs stand apart in the source and are kept apart here.

Broadly, the ED50 is the dose that gives a 50% effect, or the effect in half of the subjects.

The conditions of series [1]: sodium salt; cited from earlier work.
Series [2] deals with quinolinic acid induced clonic seizures in mice. The series can be described thus: inhibition of quinolinic acid (intracerebroventricular) induced clonic seizures in mice. Type of series: in vivo. The protocol:
The intracerebroventricular administration of quinolinic acid induces clonic seizures in mice.
In this test, groups of 10 mice were pretreated intravenously with varying doses of R-4-Oxo-5-phosphononorvaline(hereinafter compound) ranging from 1 to 16 mg/kg. Five minutes later the mice were administered 7.7 micrograms of quinolinic acid intracerebroventricularly in a volume of 5 microliters of saline. […] A graph was prepared based upon the dose administered and the percentage of animals protected at that dose. An ED50 was calculated from the graph. The test was then repeated in separate mice with the only modification being the addition of 100 mg/kg of probenecid IP. The following ED50 's were obtained.
The protocol described above was repeated except that the compounds was administered intraperitoneally (dosage ranging from 0.5 to 32 mg/kg) and the pretreatment time was extended to 30 minutes. The following ED50 's were obtained.

Series [3] relates to sound induced seizures in DBA/2J audiogenic mice. The series can be described thus: inhibition of sound induced seizures in audiogenic mice (anti-epileptic activity). Type of series: in vivo. As to conditions: two hours before 110 decibels sound for 30 seconds, 120 min.
Text: One method for evaluating the potential anti-epileptic activity of selected compounds is by their ability to inhibit sound induced seizures in audiogenic mice. DBA/2J audiogenic mice experience seizures when exposed to loud noises. Compounds which prevent this phenomenon are considered to be antiepilpetic agents.
Two hours after administration, they were placed individually in glass jars and exposed to a sound stimulus of 110 decibels for 30 seconds. Each mouse was observed during the sound exposure for signs of seizure activity. A graph was prepared based upon the dose administered and the percentage of animals protected at that dose. An ED50 was calculated from the graph. In some mice the test was performed with the only modification being the addition of 100 mg/kg of probenecid IP.
The test was conducted in the following manner.
Five minutes after administration, they were placed individually in glass jars and exposed to a sound stimulus of 110 decibels for 30 seconds. Each mouse was observed during the sound exposure for signs of seizure activity. A graph was prepared based upon the dose administered and the percentage of animals protected at that dose. An ED50 was calculated from the graph. The test was also performed in separate mice with the only modification being the addition of 100 mg/kg or 200 mg/kg of probenecid IP.

On to `CCCN(CCC)S(=O)(=O)c1ccc(C(=O)O)cc1` [sodium salt of probenecid], for which, in series [1], the water solubility result is “readily water soluble”.

On to `N[C@H](CC(=O)CP(=O)(O)O)C(=O)O` [R-4-Oxo-5-phosphononorvaline], for which the ED50 turned out to be 4 mg/kg in series [2] (Mus musculus, 5 min, compound alone, intravenous 1 to 16 mg/kg, five minutes before quinolinic acid 7.7 micrograms icv, read-out: ED50); 16.3 mg/kg in series [2] (Mus musculus, ip, 0.5 h, compound alone, intraperitoneal 0.5 to 32 mg/kg, 30 minutes pretreatment, read-out: ED50); 8.0 mg/kg in series [2] (compound intraperitoneal + probenecid (protocol as before: 100 mg/kg IP), 30 minutes pretreatment); 2.3 mg/kg in series [2] (compound intravenous + 100 mg/kg probenecid IP, five minutes before quinolinic acid 7.7 micrograms icv, 5 min).

Regarding “3-[(phenacyl)methylamino]-2-carboxy-4,6-dichloroindole”, the ED50 was determined as 183.7 mg/kg in series [3] (compound alone, i.p. 25 to 400 mg/kg) and 45.4 mg/kg in series [3] (compound i.p. + 100 mg/kg probenecid IP).
